Measured values published in patent US20240197727A1, “SOLID DISPERSIONS COMPRISING AMORPHOUS PIMOBENDAN AND ONE OR MORE STABILIZING POLYMERS” (Boehringer Ingelheim Vetmedica GmbH, priority 2022, published 2024).
Values after ≈ are worked out from the molar mass of the structure shown.

Key:
[1] = Thermodynamic (equilibrium) solubility at 37° C., immersed UV probes; type: physicochemical; details: aqueous buffer, thermodynamic from solid
[2] = pH 5; cited from earlier work

solubility thermodynamic ([1]; pH 3.0 (maleic acid buffer)): 19.5 µg/mL (≈ 58.3 µM)
solubility thermodynamic ([1]; pH 6.5 (phosphate buffer)): 0.3 µg/mL (≈ 0.897 µM)
Structure (SMILES): COc1ccc(-c2nc3ccc(C4=NNC(=O)CC4C)cc3[nH]2)cc1 (stereo not drawn) [Crystalline pimobendan]
Solubility (amount that dissolves) in water [2]: about 1 mg/liter
